From ChEMBL document CHEMBL4706545, “Antiproliferative effect of mitochondria-targeting allobetulin 1,2,3-triazolium salt derivatives and their mechanism of inducing apoptosis of cancer cells” (Eur J Med Chem, 2020)
Activity calls are given as the source filed them. The calls are words filed in the database; no cut-off is given here.

Columns and labels:
ECa-109 cell line [1] = test: Induction of apoptosis in human ECa-109 cells assessed as downregulation of Bcl-xl incubated for 48 hrs by Western blot analysis; format: functional, cell-based; details: dose 1-4 µM
ECa-109 cell line [2] = test: Induction of ROS-mediated apoptosis in human ECa-109 cells assessed as early apoptotic cells at 2 uM incubated for 48 hrs by annexin V-PE and 7-AAD staining based flow cytometry analysis (reference value: 2.70 %); format: functional
ECa-109 cell line [3] = test: Induction of apoptosis in human ECa-109 cells assessed as early apoptotic cells at 1 uM incubated for 48 hrs by annexin-V-FITC and PI staining based fluorescence microscopic analysis (reference value: 0.971 %); format: functional
ECa-109 cell line [4] = test: Induction of apoptosis in human ECa-109 cells assessed as concentrated chromatin at 1 to 4 uM incubated for 48 hrs by Hoechst staining based fluorescence microscopic analysis; format: functional, cell-based; details: dose 1-4 µM
ECa-109 cell line [5] = test: Induction of ROS-mediated apoptosis in human ECa-109 cells assessed as necrotic cells at 1 uM incubated for 48 hrs in presence of NAC by annexin V-PE and 7-AAD staining based flow cytometry analysis (reference value: 1.09 %); format: functional
ECa-109 cell line [6] = test: Induction of cell cycle arrest in human ECa-109 cells assessed as accumulation in G0/G1 phase at 1 uM incubated for 48 hrs by PI staining based flow cytometry analysis (reference value: 52.28 %); format: functional
ECa-109 cell line [7] = test: Induction of ROS-mediated apoptosis in human ECa-109 cells assessed as necrotic cells at 2 uM incubated for 48 hrs in presence of NAC by annexin V-PE and 7-AAD staining based flow cytometry analysis (reference value: 1.09 %); format: functional
ECa-109 cell line [8] = test: Induction of apoptosis in human ECa-109 cells assessed as viable cells at 1 uM incubated for 48 hrs by annexin-V-FITC and PI staining based fluorescence microscopic analysis (reference value: 95.8 %); format: functional; details: read-out: Activity
[9] = Selectivity index, ratio of IC50 for cytotoxicity against human HL7702 cells to IC50 for cytotoxicity against human ECa-109 cells
ECa-109 cell line [10] = test: Induction of ROS-mediated apoptosis in human ECa-109 cells assessed as viable cells at 4 uM incubated for 48 hrs by annexin V-PE and 7-AAD staining based flow cytometry analysis (reference value: 92.7 %); format: functional; details: read-out: Activity
ECa-109 cell line [11] = test: Induction of mitochondrial membrane potential disruption in human ECa-109 cells incubated for 48 hrs by JC-1 dye based flow cytometry analysis; details: Mitochondria, dose 1-4 µM
ECa-109 cell line [12] = test: Induction of apoptosis in human ECa-109 cells assessed as late apoptotic cells at 4 uM incubated for 48 hrs by annexin-V-FITC and PI staining based fluorescence microscopic analysis (reference value: 2.01 %); format: functional
ECa-109 cell line [13] = test: Induction of apoptosis in human ECa-109 cells assessed as necrotic cells at 4 uM incubated for 48 hrs by annexin-V-FITC and PI staining based fluorescence microscopic analysis (reference value: 1.19 %); format: functional
ECa-109 cell line [14] = test: Induction of apoptosis in human ECa-109 cells assessed as necrotic cells at 2 uM incubated for 48 hrs by annexin-V-FITC and PI staining based fluorescence microscopic analysis (reference value: 1.19 %); format: functional
SGC-7901 [15] = test: Induction of apoptosis in human SGC-7901 cells assessed as viable cells at 1 uM incubated for 48 hrs by annexin-V-FITC and PI staining based fluorescence microscopic analysis (reference value: 93.8 %); format: functional; details: read-out: Activity
SGC-7901 [16] = test: Induction of ROS-mediated apoptosis in human SGC-7901 cells assessed as late apoptotic cells at 2 uM incubated for 48 hrs by annexin V-PE and 7-AAD staining based flow cytometry analysis (reference value: 3.82 %); format: functional
SGC-7901 [17] = test: Induction of ROS-mediated apoptosis in human SGC-7901 cells assessed as necrotic cells at 2 uM incubated for 48 hrs in presence of NAC by annexin V-PE and 7-AAD staining based flow cytometry analysis (reference value: 0.623 %); format: functional
SGC-7901 [18] = test: Induction of apoptosis in human SGC-7901 cells assessed as concentrated chromatin at 1 to 4 uM incubated for 48 hrs by Hoechst staining based fluorescence microscopic analysis; format: functional, cell-based; details: dose 1-4 µM
SGC-7901 [19] = test: Induction of ROS-mediated apoptosis in human SGC-7901 cells assessed as viable cells at 1 uM incubated for 48 hrs in presence of NAC by annexin V-PE and 7-AAD staining based flow cytometry analysis (reference value: 94.8 %); format: functional; details: read-out: Activity
SGC-7901 [20] = test: Induction of apoptosis in human SGC-7901 cells assessed as early apoptotic cells at 1 uM incubated for 48 hrs by annexin-V-FITC and PI staining based fluorescence microscopic analysis (reference value: 1.87 %); format: functional
SGC-7901 [21] = test: Induction of apoptosis in human SGC-7901 cells assessed as decrease in PARP incubated for 48 hrs by Western blot analysis; format: functional, cell-based; details: dose 1-4 µM
SGC-7901 [22] = test: Induction of ROS-mediated apoptosis in human SGC-7901 cells assessed as viable cells at 2 uM incubated for 48 hrs by annexin V-PE and 7-AAD staining based flow cytometry analysis (reference value: 93.6 %); format: functional; details: read-out: Activity
SGC-7901 [23] = test: Induction of cell cycle arrest in human SGC-7901 cells assessed as accumulation in G0/G1 phase at 4 uM incubated for 48 hrs by PI staining based flow cytometry analysis (reference value: 57.39 %); format: functional
SGC-7901 [24] = test: Induction of apoptosis in human SGC-7901 cells assessed as necrotic cells at 2 uM incubated for 48 hrs by annexin-V-FITC and PI staining based fluorescence microscopic analysis (reference value: 1.03 %); format: functional
SGC-7901 [25] = test: Induction of ROS-mediated apoptosis in human SGC-7901 cells assessed as early apoptotic cells at 1 uM incubated for 48 hrs in presence of NAC by annexin V-PE and 7-AAD staining based flow cytometry analysis (reference value: 1.15 %); format: functional
SGC-7901 [26] = test: Induction of ROS-mediated apoptosis in human SGC-7901 cells assessed as late apoptotic cells at 1 uM incubated for 48 hrs by annexin V-PE and 7-AAD staining based flow cytometry analysis (reference value: 3.82 %); format: functional
SGC-7901 [27] = test: Induction of apoptosis in human SGC-7901 cells assessed as viable cells at 4 uM incubated for 48 hrs by annexin-V-FITC and PI staining based fluorescence microscopic analysis (reference value: 93.8 %); format: functional; details: read-out: Activity
SGC-7901 [28] = test: Induction of ROS-mediated apoptosis in human SGC-7901 cells assessed as necrotic cells at 4 uM incubated for 48 hrs in presence of NAC by annexin V-PE and 7-AAD staining based flow cytometry analysis (reference value: 0.623 %); format: functional
SGC-7901 [29] = test: Induction of ROS-mediated apoptosis in human SGC-7901 cells assessed as viable cells at 4 uM incubated for 48 hrs in presence of NAC by annexin V-PE and 7-AAD staining based flow cytometry analysis (reference value: 94.8 %); format: functional; details: read-out: Activity
SGC-7901 [30] = test: Induction of apoptosis in human SGC-7901 cells assessed as necrotic cells at 1 uM incubated for 48 hrs by annexin-V-FITC and PI staining based fluorescence microscopic analysis (reference value: 1.03 %); format: functional
SGC-7901 [31] = test: Induction of apoptosis in human SGC-7901 cells assessed as early apoptotic cells at 2 uM incubated for 48 hrs by annexin-V-FITC and PI staining based fluorescence microscopic analysis (reference value: 1.87 %); format: functional

In the case of COc1ccccc1Cn1n[n+](C)c2c1C(C)(C)[C@@H]1CC[C@]3(C)[C@H](CC[C@@H]4[C@H]5[C@H]6OC[C@@]5(CCC6(C)C)CC[C@]43C)[C@@]1(C)C2.[I-], the Activity (ECa-109 cell line [1]) is reported as “Dose-dependent effect”, the Activity (ECa-109 cell line [2]) is reported as 11.5% and the Activity (ECa-109 cell line [3]) is reported as 17.4%. For the same molecule, the Activity (ECa-109 cell line [4]) was “Active”, the Activity (ECa-109 cell line [5]) was 2.07% and the Activity (ECa-109 cell line [6]) was 54.16%. For the same molecule, the Activity (ECa-109 cell line [7]) was 5.48%, the viability at 1 µM (ECa-109 cell line [8]) was 69.1% and the “Ratio IC50” value [9] was 1.53. The viability at 4 µM (ECa-109 cell line [10]) was 0.811%, the Activity (ECa-109 cell line [11]) was “Dose-dependent effect” and the Activity (ECa-109 cell line [12]) was 92.2%. For the same molecule, the Activity (ECa-109 cell line [13]) was 3.58% and the Activity (ECa-109 cell line [14]) was 1.32%.

C[n+]1nn(Cc2c(F)cccc2Cl)c2c1C[C@]1(C)[C@H]3CC[C@@H]4[C@H]5[C@H]6OC[C@@]5(CCC6(C)C)CC[C@@]4(C)[C@]3(C)CC[C@H]1C2(C)C.[I-] showed a viability at 1 µM (SGC-7901 [15]) of 83%, an Activity (SGC-7901 [16]) of 12.3% and an Activity (SGC-7901 [17]) of 0.637%. For the same molecule, the Activity (SGC-7901 [18]) was “Active”, the viability at 1 µM (SGC-7901 [19]) was 87.7% and the Activity (SGC-7901 [20]) was 10.7%. The Activity (SGC-7901 [21]) was “Dose-dependent effect”, the viability at 2 µM (SGC-7901 [22]) was 60.2% and the Activity (SGC-7901 [23]) was 59.38%. It also gave an Activity (SGC-7901 [24]) of 1.56%, an Activity (SGC-7901 [25]) of 6.13% and an Activity (SGC-7901 [26]) of 4.97%. For the same molecule, the viability at 4 µM (SGC-7901 [27]) was 0.494%, the Activity (SGC-7901 [28]) was 2.66% and the viability at 4 µM (SGC-7901 [29]) was 15.3%. For the same molecule, the Activity (SGC-7901 [30]) was 1.56% and the Activity (SGC-7901 [31]) was 25.4%.
